We go through one compound from article PMC8283790, “Inhibitory Effect of Puroindoline Peptides on Campylobacter jejuni Growth and Biofilm Formation” (Frontiers in Microbiology, 2021).

The structures appear in SMILES notation. Where a SMILES comes first, the peptide text is derived from it.

Data set [1] relates to INT 407 cells. In words: Lactate dehydrogenase (LDH) cytotoxicity assay. It counts as cell-based, human. The note with it: INT 407 cells, any time point (3, 6, 24 h). The procedure:
(§1) The toxicity of the puroindoline peptides was assessed using INT 407 epithelial cells (ATCC CCL-6) and SRBCs, as described below. The INT 407 cells (a derivative of HeLa cells) were cultured in Minimal Essential Medium (MEM) (Gibco, Grand Island, NY, United States) supplemented with 10% fetal bovine serum (FBS) and 1 mM sodium pyruvate at 37°C in humidified condition (5% CO2).
The cytotoxicity of puroindoline peptides on INT 407 cells was monitored using the lactate dehydrogenase (LDH) activity assay kit (Millipore Sigma, Danvers, MA, United States) following the manufacturer’s guidelines. LDH is released from damaged cells into the medium. Briefly, INT 407 cells were seeded into a 96 well plate at a density of 2.5 × 10^4 cells/well in 200 μL growth media (MEM supplemented by 10% FBS) and incubated for 24 h at 37°C in humidified (5% CO2) conditions. The next day, cells were rinsed twice with MEM without FBS, and different concentrations of peptides were added. Cells were incubated for 3 h, 6 h or 24 h at 37°C. As a positive control, 0.1% Triton X-100 was used. Media only was used as a negative control. In the presence of Triton X-100, cells release maximum LDH. After the appropriate incubation point, the tissue culture plate was centrifuged at 2000 rpm for 5 min. […] Absorbance was recorded at 450 nm (OD450) on a BioTek 96-well plate reader.

For data set [2], the system named is INT 407 cells. Kind of data set: MTT cell viability assay. Conditions: INT 407 cells, 24 h. It is filed as cell-based, human. The procedure: as §1
The viability of INT 407 cells was assessed by MTT assay according to the manufacturer’s recommendations (Roche Diagnostics, Mannheim, Germany). Briefly, INT 407 cells were seeded into a 96-well plate at a density of 2.5 × 10^4 cells/well in 200 μL of growth media (MEM supplemented by 10% FBS) and incubated for 24 h at 37°C under humidified conditions. Cells were rinsed twice with MEM without FBS, and different concentrations of peptides were added into the well. Triton X-100 was added as a positive control and growth medium only was added as a negative control. After treatment, the cells were incubated for different time points (3, 6, or 24 h) at 37°C in a humidified condition. At the end of each experiment, 100 μL of culture medium was removed into a new 96-well plate, and 25 μL of MTT stock solution was added into each well. The plates were incubated for 4 h at 37°C. Then, 100 μL of the solubilizing solution was added to each well, and the plate was incubated overnight at 37°C. After cooling, the plates were read at 570 nm (OD570) on a BioTek 96-well plate reader.

Data set [3] relates to sheep red blood cells (SRBCs). Kind of data set: Hemolysis assay. It counts as cell-based. The note with it: ~10^8 cells/mL, 60 min, 37°C, absorbance 540 nm; 100% = 1% Triton X-100. How it is done: The potential toxicity of the peptides was determined using a hemolysis assay. Briefly, SRBCs (Hardy Diagnostics, Santa Monica, CA, United States) were washed three times with 1× PBS. Aliquots containing approximately 10^8 cells/mL were incubated with different concentrations of the peptides for 60 min at 37°C in a 96-well tray. The plates were then centrifuged, and the absorbance of each supernatant was measured at 540 nm. Zero hemolysis (blank) and 100% hemolysis were determined in phosphate buffer and 1% Triton X-100, respectively.

A short description of data set [4]: Solubility of the synthetic peptides. It is filed as physicochemical. The note with it: DMSO and water.
The subject of a further data set is blood. The note with it: blood hemolysis assay; ref Jing et al. (2003); cited from earlier work. The source says: (§2) The cytotoxicity and hemolytic activity of PinA has been addressed in this study using human epithelial INT 407 cells and SRBCs. INT 407 cells were chosen for this study as these cells grow rapidly and easy to maintain in culture media. INT 407 cells have been used extensively in C. jejuni research for several decades ([Negretti et al., 2019]). […] The first report on the cytotoxicity of puroindolines was from [Jing et al. (2003)], where th ...

The next data set deals with red blood cells. Conditions: ref Capparelli et al. (2007); cited from earlier work.
From the text: as §2

In the case of `CSCC[C@H](NC(=O)[C@@H](N)[C@@H](C)O)C(=O)N[C@@H](CCCCN)C(=O)N[C@@H](CC(=O)O)C(=O)N[C@@H](Cc1ccccc1)C(=O)N1CCC[C@H]1C(=O)N[C@H](C(=O)N[C@H](C(=O)N[C@@H](Cc1c[nH]c2ccccc12)C(=O)N1CCC[C@H]1C(=O)N[C@H](C(=O)N[C@@H](CCCCN)C(=O)N[C@@H](Cc1c[nH]c2ccccc12)C(=O)N[C@@H](Cc1c[nH]c2ccccc12)C(=O)N[C@@H](CCCCN)C(=O)NCC(=O)NCC(=O)O)[C@@H](C)O)[C@@H](C)O)C(C)C` [PinB] (H-TMKDFPVTWPTKWWKGG-OH), in the data set on INT 407 cells [1], the “Concentration showing cytotoxicity (LDH release)” value is over 512 µg/mL. For the same compound, in the data set with INT 407 cells [2], the “Concentration reducing cell viability (MTT, OD570)” value was over 512 µg/mL. The “Concentration showing hemolysis of SRBCs” value in data set [3] was at least 256 µg/mL. The “Solubility (in words)” value in data set [4] is “soluble in DMSO, an organic solvent, but not in water”. Further, the “Concentration up to which no hemolytic activity was identified” value in the data set with blood is 1000 µg/mL. In the data set on red blood cells, the “Concentration up to which no hemolytic activity was displayed” value is 50 µg/mL.
